The subject of assay [1] is Beet Armyworm (Spodoptera exigua). Nature of the assay: Bioassays on BAW, 128-well diet tray assay. Format: in vivo. As to conditions: Spodoptera exigua, 168 h; 50 μg/cm^2 on artificial diet, second instar larvae, five to seven days; read-out: BAW % Control (or Mortality) rating. As for the experimental part:
Bioassays on BAW were conducted using a 128-well diet tray assay. One to five second instar BAW larvae were placed in each well (3 mL) of the diet tray that had been previously filled with 1 mL of artificial diet to which 50 μg/cm^2 of the test molecule (dissolved in 50 μL of 90:10 acetone-water mixture) had been applied (to each of eight wells) and then allowed to dry. Trays were covered with a clear self-adhesive cover and held at 25° C., 14:10 light-dark for five to seven days. Percent mortality was recorded for the larvae in each well; activity in the eight wells was then averaged. The results are indicated in the table entitled “Table ABC: Biological Results” (See Table Section).
(§1) Bioassays on BAW and CL were conducted according to the procedures outlined in Example A: Bioassays on Beet Armyworm (“BAW”) and Cabbage Looper (“CL”) using the indicated concentrations.

Assay [2] concerns Cabbage Looper (Trichoplusia ni). Nature of the assay: Bioassays on CL, 128-well diet tray assay. Format: in vivo. Particulars: Trichoplusia ni, 168 h; 50 μg/cm^2 on artificial diet, second instar larvae, five to seven days; read-out: CL % Control (or Mortality) rating. On the procedure: Bioassays on CL were conducted using a 128-well diet tray assay.
One to five second instar CL larvae were placed in each well (3 mL) of the diet tray that had been previously filled with 1 mL of artificial diet to which 50 μg/cm^2 of the test molecule (dissolved in 50 μL of 90:10 acetone-water mixture) had been applied (to each of eight wells) and then allowed to dry. Trays were covered with a clear self-adhesive cover and held at 25° C., 14:10 light-dark for five to seven days. Percent mortality was recorded for the larvae in each well; activity in the eight wells was then averaged. The results are indicated in the table entitled “Table ABC: Biological Results” (See Table Section).
as §1

Turning to `CC(C)CS(=O)(=O)C[C@@H](C)NC(=O)c1ccc(/C=C/C(c2cc(Cl)c(Cl)c(Cl)c2)C(F)(F)F)cc1C(F)(F)F` (stereo partly drawn) [F81, N—((R)-1-(Isobutylsulfonyl)propan-2-yl)-4-((E)-4,4,4-trifluoro-3-(3,4,5-trichlorophenyl)but-1-en-1-yl)-2-(trifluoromethyl)benzamide], the mortality at 50 µg/cm2 in assay [1] and in assay [2] was 50 to 100% throughout.
For `CC(C)[S+]([O-])C[C@@H](C)NC(=O)c1ccc(/C=C/C(c2cc(Cl)c(Cl)c(Cl)c2)C(F)(F)F)cc1C(F)(F)F` (stereo partly drawn) [F82, N-((2R)-1-(Isopropylsulfinyl)propan-2-yl)-4-((E)-4,4,4-trifluoro-3-(3,4,5-trichlorophenyl)but-1-en-1-yl)-2-(trifluoromethyl)benzamide], the mortality at 50 µg/cm2 in assay [1] and in assay [2] was 50 to 100% throughout.
Take `O=C(NCC1(SCC(F)(F)F)COC1)c1ccc(/C=C/C(c2cc(Cl)c(Cl)c(Cl)c2)C(F)(F)F)cc1C(F)(F)F` (stereo not shown) [F83, (E)-4-(4,4,4-Trifluoro-3-(3,4,5-trichlorophenyl)but-1-en-1-yl)-N-((3-((2,2,2-trifluoroethyl)thio)oxetan-3-yl)methyl)-2-(trifluoromethyl)benzamide]: the mortality at 50 µg/cm2 in assay [1] and in assay [2] was 50 to 100% each time.
`C[C@H](CS(=O)(=O)CC(F)(F)F)NC(=O)c1ccc(/C=C/C(c2cc(Cl)c(Cl)c(Cl)c2)C(C)(F)F)cc1C(F)(F)F` (stereo partly drawn) [F84, 4-((E)-4,4-Difluoro-3-(3,4,5-trichlorophenyl)pent-1-en-1-yl)-N—((R)-1-((2,2,2-trifluoroethyl)sulfonyl)propan-2-yl)-2-(trifluoromethyl)benzamide]: the mortality at 50 µg/cm2 in assay [1] and in assay [2] was 50 to 100% throughout.
On to `O=C(NCC1([S+]([O-])CC(F)(F)F)COC1)c1ccc(/C=C/C(c2cc(Cl)c(Cl)c(Cl)c2)C(F)(F)F)cc1C(F)(F)F` (stereo not shown) [F107, (E)-4-(4,4,4-Trifluoro-3-(3,4,5-trichlorophenyl)but-1-en-1-yl)-N-((3-((2,2,2-trifluoroethyl)sulfinyl)oxetan-3-yl)methyl)-2-(trifluoromethyl)benzamide], for which the mortality at 50 µg/cm2 in assay [1] and in assay [2] was 50 to 100% each time.
With `C[C@H](CSCC(F)(F)F)NC(=O)c1ccc(/C=C/C(c2cc(Cl)c(Cl)c(Cl)c2)C(C)(F)F)cc1C(F)(F)F` (stereo partly drawn) [F108, 4-((E)-4,4-Difluoro-3-(3,4,5-trichlorophenyl)pent-1-en-1-yl)-N—((R)-1-((2,2,2-trifluoroethyl)thio)propan-2-yl)-2-(trifluoromethyl)benzamide], the mortality at 50 µg/cm2 in assay [1] and in assay [2] was 50 to 100% each time.
On to `C[C@H](CS(=O)(=O)CC(F)(F)F)NC(=O)c1ccc(/C=C/C(c2cc(Cl)c(Cl)c(Br)c2)C(F)(F)F)cc1C(F)(F)F` (stereo partly drawn) [F114, 4-((E)-3-(3-Bromo-4,5-dichlorophenyl)-4,4,4-trifluorobut-1-en-1-yl)-N—((R)-1-((2,2,2-trifluoroethyl)sulfonyl)propan-2-yl)-2-(trifluoromethyl)benzamide], for which the mortality at 50 µg/cm2 in assay [1] and in assay [2] was 50 to 100% in each case.
For the molecule `C=Cc1cc(C(/C=C/c2ccc(C(=O)N[C@H](C)CS(=O)(=O)CC(F)(F)F)c(C(F)(F)F)c2)C(F)(F)F)cc(Cl)c1Cl` (stereo partly drawn) [F115, 4-((E)-3-(3,4-Dichloro-5-vinylphenyl)-4,4,4-trifluorobut-1-en-1-yl)-N—((R)-1-((2,2,2-trifluoroethyl)sulfonyl)propan-2-yl)-2-(trifluoromethyl)benzamide], the mortality at 50 µg/cm2 in assay [1] and in assay [2] was 50 to 100% throughout.
On to `C[C@H](CSCC(F)(F)F)NC(=O)c1ccc(/C=C/C(c2cc(Cl)c(Cl)c(Br)c2)C(F)(F)F)cc1C(F)(F)F` (stereo partly drawn) [F116, 4-((E)-3-(3-Bromo-4,5-dichlorophenyl)-4,4,4-trifluorobut-1-en-1-yl)-N—((R)-1-((2,2,2-trifluoroethyl)thio)propan-2-yl)-2-(trifluoromethyl)benzamide], for which the mortality at 50 µg/cm2 in assay [1] and in assay [2] was 50 to 100% throughout.
As to `C[C@H](C[S+]([O-])CC(F)(F)F)NC(=O)c1ccc(/C=C/C(c2ccc(Cl)c(Cl)c2)C(F)(F)F)cc1Br` (stereo partly drawn) [F117, 2-Bromo-4-((E)-3-(3,4-dichlorophenyl)-4,4,4-trifluorobut-1-en-1-yl)-N-((2R)-1-((2,2,2-trifluoroethyl)sulfinyl)propan-2-yl)benzamide], the mortality at 50 µg/cm2 in assay [1] and in assay [2] was 50 to 100% throughout.
For `C[C@H](CS(=O)(=O)CC(F)(F)F)NC(=O)c1ccc(/C=C/C(c2cc(Br)cc(OCC(F)(F)F)c2)C(C)(F)F)cc1C(F)(F)F` (stereo partly drawn) [F120, 4-((E)-3-(3-Bromo-5-(2,2,2-trifluoroethoxy)phenyl)-4,4-difluoropent-1-en-1-yl)-N—((R)-1-((2,2,2-trifluoroethyl)sulfonyl)propan-2-yl)-2-(trifluoromethyl)benzamide], the mortality at 50 µg/cm2 in assay [1] and in assay [2] was 50 to 100% throughout.
On to `C[C@H](C[S+]([O-])CCF)NC(=O)c1ccc(/C=C/C(c2cc(Cl)c(Cl)c(Cl)c2)C(C)(F)F)cc1C(F)(F)F` (stereo partly drawn) [F121, 4-((E)-4,4-Difluoro-3-(3,4,5-trichlorophenyl)pent-1-en-1-yl)-N-((2R)-1-((2-fluoroethyl)sulfinyl)propan-2-yl)-2-(trifluoromethyl)benzamide], for which the mortality at 50 µg/cm2 in assay [1] and in assay [2] was 50 to 100% in each case.
Take `C[C@H](CS(=O)(=O)CCF)NC(=O)c1ccc(/C=C/C(c2cc(Cl)c(Cl)c(Cl)c2)C(C)(F)F)cc1C(F)(F)F` (stereo partly drawn) [F122, 4-((E)-4,4-Difluoro-3-(3,4,5-trichlorophenyl)pent-1-en-1-yl)-N—((R)-1-((2-fluoroethyl)sulfonyl)propan-2-yl)-2-(trifluoromethyl)benzamide]: the mortality at 50 µg/cm2 in assay [1] and in assay [2] was 50 to 100% each time.
For `C[C@H](CS(=O)(=O)CC(F)(F)F)NC(=O)c1ccc(/C=C/C(c2ccc(C(F)(F)F)c(F)c2)C(C)(F)F)cc1C(F)(F)F` (stereo partly drawn) [F123, 4-((E)-4,4-Difluoro-3-(3-fluoro-4-(trifluoromethyl)phenyl)pent-1-en-1-yl)-N—((R)-1-((2,2,2-trifluoroethyl)sulfonyl)propan-2-yl)-2-(trifluoromethyl)benzamide], the mortality at 50 µg/cm2 in assay [1] and in assay [2] was 50 to 100% in each case.
For `C[C@H](CS(=O)(=O)CC(F)(F)F)NC(=O)c1ccc(/C=C/C(c2ccc(Cl)c(Cl)c2)C(F)(F)F)cc1Br` (stereo partly drawn) [F124, 2-Bromo-4-((E)-3-(3,4-dichlorophenyl)-4,4,4-trifluorobut-1-en-1-yl)-N—((R)-1-((2,2,2-trifluoroethyl)sulfonyl)propan-2-yl)benzamide], the mortality at 50 µg/cm2 in assay [1] and in assay [2] was 50 to 100% throughout.
Regarding `CC(F)(F)C(/C=C/c1ccc(C(=O)NCC[S+]([O-])CCF)c(C(F)(F)F)c1)c1cc(Cl)c(Cl)c(Cl)c1` (stereo not shown) [F129, (E)-4-(4,4-Difluoro-3-(3,4,5-trichlorophenyl)pent-1-en-1-yl)-N-(2-((2-fluoroethyl)sulfinyl)ethyl)-2-(trifluoromethyl)benzamide], the mortality at 50 µg/cm2 in assay [1] and in assay [2] was 50 to 100% in each case.
Turning to `C[C@H](CS(=O)(=O)CC(F)(F)F)NC(=O)c1ccc(/C=C/C(c2cc(Cl)c(Cl)c(Cl)c2)C(C)(F)F)cc1Br` (stereo partly drawn) [F130, 2-bromo-4-((E)-4,4-difluoro-3-(3,4,5-trichlorophenyl)pent-1-en-1-yl)-N—((R)-1-((2,2,2-trifluoroethyl)sulfonyl)propan-2-yl)benzamide], the mortality at 50 µg/cm2 in assay [1] and in assay [2] was 50 to 100% in each case.
On to `C[C@H](CS(=O)(=O)CC(F)(F)F)NC(=O)c1ccc(/C=C/C(c2cc(Cl)cc(Cl)c2)C(C)(F)F)cc1Br` (stereo partly drawn) [F133, 2-Bromo-4-((E)-3-(3,5-dichlorophenyl)-4,4-difluoropent-1-en-1-yl)-N—((R)-1-((2,2,2-trifluoroethyl)sulfonyl)propan-2-yl)benzamide], for which the mortality at 50 µg/cm2 in assay [1] and in assay [2] was 50 to 100% throughout.
`C[C@H](CS(=O)(=O)CC(F)(F)F)NC(=O)c1ccc(/C=C/C(c2ccc(F)c(C(F)(F)F)c2)C(C)(F)F)cc1C(F)(F)F` (stereo partly drawn) [F135, 4-((E)-4,4-Difluoro-3-(4-fluoro-3-(trifluoromethyl)phenyl)pent-1-en-1-yl)-N—((R)-1-((2,2,2-trifluoroethyl)sulfonyl)propan-2-yl)-2-(trifluoromethyl)benzamide]: the mortality at 50 µg/cm2 in assay [1] and in assay [2] was 50 to 100% each time.
`C[C@H](CS(=O)(=O)CC(F)(F)F)NC(=O)c1ccc(/C=C/C(c2cc(F)c(F)c(F)c2)C(C)(F)F)cc1C(F)(F)F` (stereo partly drawn) [F136, 4-((E)-4,4-Difluoro-3-(3,4,5-trifluorophenyl)pent-1-en-1-yl)-N—((R)-1-((2,2,2-trifluoroethyl)sulfonyl)propan-2-yl)-2-(trifluoromethyl)benzamide]: the mortality at 50 µg/cm2 in assay [1] and in assay [2] was 50 to 100% throughout.

By mortality is commonly meant the share of the test organisms that died.

For the origin of these results see US20170210723A1, “MOLECULES HAVING PESTICIDAL UTILITY, AND INTERMEDIATES, COMPOSITIONS, AND PROCESSES, RELATED THERETO” (priority 2016, published 2017).
